The values below are quoted from earlier work in paper PMC7998926 (Microorganisms, 2021).

This series relates to MARV. The conditions noted are these: mouse, in vivo; cited from earlier work.

SMILES strings stand for the structures.

As for `CC(C)COCC(CN(Cc1ccccc1)c1ccccc1)N1CCCC1` (stereo not shown) [Bepridil], the protection entry is “strongly protected”.
